ChEMBL document CHEMBL1201862, “PubChem BioAssay data set” (2004)
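Tested at 5 concentrations; 48 h exposure; 96-well plates; endpoints linearly interpolated, else capped at highest concentration. GI50: concentration for 50% inhibition of growth.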 Calls of active or inactive are those of the source. No stated cut-off is given here; in the data, active = GI50 up to about 1.1 µM and inactive = higher.

Experiments:
Assay in all cases: DTP human tumour cell line panel, 48 h
786-0 = tested on: 786-0
A498 = tested on: A498
A549 = tested on: A549
ACHN = tested on: ACHN
BT-549 = tested on: BT-549
CAKI-1 = tested on: CAKI-1
CCRF-CEM = tested on: CCRF-CEM
COLO 205 = tested on: COLO 205
DU-145 = tested on: DU-145
EKVX = tested on: EKVX
HCC 2998 = tested on: HCC 2998
HCT-116 = tested on: HCT-116
HCT-15 = tested on: HCT-15
HL-60 = tested on: HL-60
HOP-62 = tested on: HOP-62
HT-29 = tested on: HT-29
Hs-578T = tested on: Hs-578T
IGROV-1 = tested on: IGROV-1
K562 = tested on: K562
KM12 = tested on: KM12
LOX IMVI = tested on: LOX IMVI
M14 = tested on: M14
MCF7 = tested on: MCF7
MDA-MB-231 = tested on: MDA-MB-231
MDA-MB-435 = tested on: MDA-MB-435
MDA-N = tested on: MDA-N
MOLT-4 = tested on: MOLT-4
Malme-3M = tested on: Malme-3M
NCI-H23 = tested on: NCI-H23
NCI-H460 = tested on: NCI-H460
NCI-H522 = tested on: NCI-H522
NCI/ADR-RES = tested on: NCI/ADR-RES
OVCAR-3 = tested on: OVCAR-3
OVCAR-4 = tested on: OVCAR-4
OVCAR-5 = tested on: OVCAR-5
OVCAR-8 = tested on: OVCAR-8
PC-3 = tested on: PC-3
RPMI-8226 = tested on: RPMI-8226
RXF 393 = tested on: RXF 393
SF-268 = tested on: SF-268
SF-295 = tested on: SF-295
SF-539 = tested on: SF-539
SK-MEL-28 = tested on: SK-MEL-28
SK-MEL-2 = tested on: SK-MEL-2
SK-MEL-5 = tested on: SK-MEL-5
SK-OV-3 = tested on: SK-OV-3
SN12C = tested on: SN12C
SNB-19 = tested on: SNB-19
SR = tested on: SR
SW-620 = tested on: SW-620
T47D = tested on: T47D
TK-10 = tested on: TK-10
U-251 = tested on: U-251
UACC-257 = tested on: UACC-257
UACC-62 = tested on: UACC-62
UO-31 = tested on: UO-31

Compound: Cc1c(-c2ccccc2)c(C#N)c2nnc(C(N)=O)c(N)n12
- GI50 (786-0): > 100 µM (inactive)
- GI50 (A498): > 100 µM (inactive)
- GI50 (A549): > 100 µM (inactive)
- GI50 (ACHN): > 100 µM (inactive)
- GI50 (BT-549): > 100 µM (inactive)
- GI50 (CAKI-1): > 100 µM (inactive)
- GI50 (CCRF-CEM): > 100 µM (inactive)
- GI50 (COLO 205): > 100 µM (inactive)
- GI50 (DU-145): > 100 µM (inactive)
- GI50 (EKVX): > 100 µM (inactive)
- GI50 (HCC 2998): > 100 µM (inactive)
- GI50 (HCT-116): > 100 µM (inactive)
- GI50 (HCT-15): > 100 µM
- GI50 (HL-60): > 100 µM (inactive)
- GI50 (HOP-62): > 100 µM (inactive)
- GI50 (HT-29): > 100 µM (inactive)
- GI50 (Hs-578T): > 100 µM (inactive)
- GI50 (IGROV-1): > 100 µM (inactive)
- GI50 (K562): > 100 µM (inactive)
- GI50 (KM12): > 100 µM (inactive)
- GI50 (LOX IMVI): > 100 µM (inactive)
- GI50 (M14): > 100 µM (inactive)
- GI50 (MCF7): > 100 µM (inactive)
- GI50 (MDA-MB-231): > 100 µM (inactive)
- GI50 (MDA-MB-435): > 100 µM (inactive)
- GI50 (MDA-N): > 100 µM (inactive)
- GI50 (MOLT-4): > 100 µM (inactive)
- GI50 (Malme-3M): > 100 µM (inactive)
- GI50 (NCI-H23): > 100 µM (inactive)
- GI50 (NCI-H460): > 100 µM (inactive)
- GI50 (NCI-H522): > 100 µM (inactive)
- GI50 (NCI/ADR-RES): > 100 µM (inactive)
- GI50 (OVCAR-3): > 100 µM (inactive)
- GI50 (OVCAR-4): > 100 µM (inactive)
- GI50 (OVCAR-5): > 100 µM (inactive)
- GI50 (OVCAR-8): > 100 µM (inactive)
- GI50 (PC-3): > 100 µM (inactive)
- GI50 (RPMI-8226): > 100 µM (inactive)
- GI50 (RXF 393): > 100 µM (inactive)
- GI50 (SF-268): > 100 µM (inactive)
- GI50 (SF-295): > 100 µM (inactive)
- GI50 (SF-539): > 100 µM (inactive)
- GI50 (SK-MEL-28): > 100 µM (inactive)
- GI50 (SK-MEL-2): > 100 µM (inactive)
- GI50 (SK-MEL-5): > 100 µM (inactive)
- GI50 (SK-OV-3): 70.5 µM (inactive)
- GI50 (SN12C): > 100 µM (inactive)
- GI50 (SNB-19): > 100 µM (inactive)
- GI50 (SR): > 100 µM (inactive)
- GI50 (SW-620): > 100 µM (inactive)
- GI50 (T47D): > 100 µM (inactive)
- GI50 (TK-10): > 100 µM (inactive)
- GI50 (U-251): > 100 µM (inactive)
- GI50 (UACC-257): > 100 µM (inactive)
- GI50 (UACC-62): > 100 µM (inactive)
- GI50 (UO-31): > 100 µM (inactive)
